The results in this text go back to patent US20260042754A1, “Substituted Bicyclic Heteroaryl Sulfonamide Derivatives for the Treatment of Cancer” (NODUS ONCOLOGY LIMITED, priority 2022, published 2026).

The target of experiment [1] is Recombinant His-tagged human PARG protein (Homo sapiens (Human), UniProt Q86W56). Nature of the experiment: PARG enzymatic assay (TFMU-ADPr fluorescence). In kind it is biochemical. Conditions: 1 nM enzyme, 200 μM TFMU-ADPr, read after 30 minutes. Put shortly:
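Sf21-expressed His-tagged human PARG (1 nM) preincubated 15 min with compound (8-point series, 0.5% DMSO) in pH 7.4 phosphate/KCl/β-mercaptoethanol buffer, then 200 μM TFMU-ADPr added. Fluorescence (ex 380/em 535 nm) read after 30 min; IC50 from 4-parameter logistic fit, no-enzyme control as bottom.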

In experiment [2] the target is human PARG (PARG-NanoLuc fusion in HEK293T cells) (Homo sapiens (Human), UniProt Q86W56). Description: PARG NanoBRET-based cellular target engagement assay. In kind it is cell-based. The following applies: HEK293T cells transfected with PARG-NanoLuc, NanoBRET probe 0.89 μM, 2 hours; read-out: PARG TE IC50. Put shortly:
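HEK293T cells transiently expressing full-length human PARG with C-terminal NanoLuc, plated 24 h, then given compound (8-point series, 0.5% DMSO) for 15 min at room temperature. NanoBRET tracer added at 0.89 μM final, 2 h at 37° C.; BRET ratio (460/645 nm) fitted by 4-parameter logistic to give IC50.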
(BRET reads energy transfer from a luciferase to a nearby fluorophore.)

In experiment [3] the test system is RMUG-S. Nature of the experiment: Modified cell proliferation assay (CellTiter-Glo), RMUG-S, Examples 12-44. In kind it is cell-based. Conditions: Examples 12-44: modified protocol, 384-well, 300 cells per well, 120 h; highest concentration tested 9000 nM; read-out: RMUG-S GI50 (high PARG dependency). How it is done:
The cell proliferation assay protocol was modified and used for RMUG-S for Examples 12-44, and subsequently used to test Examples 1-44 in the NCI-H1650 cell line.
NCI-H1650 (ATCC, #CRL-5883) or RMUG-S were seeded on day 1 at 300 cells per well in a 384-well plate (Greiner, #781080) that assure assay linearity and optimal signal intensity in 25 μL of RPMI1640 media (Pan Biotech, #P04-22100) containing 10% FCS (Capricorn, #FBS-11A; Lot. CP22-5141) and 1% Glutamine (Pan Biotech, #P04-80100). After incubation for 24 h in humidified chambers at 37° C./5% CO2, compounds/DMSO were dispensed at different concentrations using an Echo 520 (Beckman Coulter). Cells were further incubated for 120 h at 37° C. and 5% CO2. Cells treated with the compound vehicle DMSO were used as negative controls and cells treated with 10 μM Staurosporine (LC Laboratories, #S-9300) served as positive controls.
At day 6 the CellTiter Glo Reagent was prepared according to the instructions of the kit (Promega Inc.): Reagent was mixed 1:1 with cell culture medium. Thereon, mixture and assay plates were equilibrated at room temperature for 20 min. Equal volumes of the reagent-medium-mixture were added to the volume of culture medium present in each well. The plates were mixed at […] for 2 minutes on an orbital shaker (Timix5, Edmund Buehler GmbH). The microplates were then incubated at room temperature for 10 minutes for stabilization of the luminescent signal. Following incubation, the luminescence was recorded on a Victor X5 microplate reader (Perkin Elmer) using a 200 ms integration time. The data was then analyzed with Excel using the XLFIT Plugin (dose response Fit 205) for determination of the concentration necessary for half-maximal inhibition (i.e. the inflection point of the fitted curve).
As quality control the Z′-factor was calculated from 16 positive and negative control values. Only assay results showing a Z′-factor≥0.5 were used for further analysis.
(Cellular ATP, detected with luciferase, serves as a proxy for viable cell number.)

In experiment [4] the test system is NCI-H1650. Nature of the experiment: Modified cell proliferation assay (CellTiter-Glo), NCI-H1650. In kind it is cell-based. The following applies: modified protocol, 384-well, 300 cells per well, 120 h, highest concentration tested 30000 nM, read-out: NCI-H1650 GI50 (high PARG dependency). Put shortly: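 NCI-H1650 or RMUG-S cells seeded at 300 cells/well in RPMI1640 with 10% FCS, compounds added after 24 h, then 120 h at 37 °C/5% CO2. Viability read by CellTiter-Glo luminescence; IC50 from fitted dose-response inflection point. Z′≥0.5 required.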

Where two headings read alike, the source gives them in different places.

Chain of Recombinant His-tagged human PARG protein (Q86W56 whole entry): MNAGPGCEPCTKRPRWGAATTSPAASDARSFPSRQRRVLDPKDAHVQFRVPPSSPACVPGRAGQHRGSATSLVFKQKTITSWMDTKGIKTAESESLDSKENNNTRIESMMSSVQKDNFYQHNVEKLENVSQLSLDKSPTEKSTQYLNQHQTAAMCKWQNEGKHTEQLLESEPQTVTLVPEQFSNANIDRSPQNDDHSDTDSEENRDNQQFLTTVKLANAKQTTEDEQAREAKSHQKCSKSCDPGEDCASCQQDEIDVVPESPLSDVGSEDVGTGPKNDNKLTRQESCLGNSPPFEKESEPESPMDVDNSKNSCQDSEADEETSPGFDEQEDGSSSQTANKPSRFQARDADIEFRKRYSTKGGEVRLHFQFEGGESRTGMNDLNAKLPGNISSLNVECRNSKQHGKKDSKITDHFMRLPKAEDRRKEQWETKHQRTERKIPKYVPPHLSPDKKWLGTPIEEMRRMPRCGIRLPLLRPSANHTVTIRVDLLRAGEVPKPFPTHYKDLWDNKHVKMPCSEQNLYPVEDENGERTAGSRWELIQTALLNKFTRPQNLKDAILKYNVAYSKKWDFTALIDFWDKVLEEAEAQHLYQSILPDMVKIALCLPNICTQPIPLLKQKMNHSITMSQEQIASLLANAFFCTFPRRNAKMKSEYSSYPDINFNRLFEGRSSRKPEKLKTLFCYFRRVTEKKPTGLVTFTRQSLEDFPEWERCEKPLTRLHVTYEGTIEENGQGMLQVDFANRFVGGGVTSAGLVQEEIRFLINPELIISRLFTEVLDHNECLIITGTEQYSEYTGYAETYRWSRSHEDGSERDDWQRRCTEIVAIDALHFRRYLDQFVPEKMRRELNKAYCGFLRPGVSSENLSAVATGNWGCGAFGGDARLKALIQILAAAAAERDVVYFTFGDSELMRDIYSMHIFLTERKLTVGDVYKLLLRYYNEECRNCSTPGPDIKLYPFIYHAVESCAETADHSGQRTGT
Chain of human PARG (PARG-NanoLuc fusion in HEK293T cells) (Q86W56 whole entry, the tested form may be a part): as the sequence (Q86W56 whole entry) above

For the compound `CO/N=c1\[nH]c2c(C3CCN(C(=O)C4(C)CC4)[C@H](C)C3)cc(S(=O)(=O)NC3(C)CC3)cc2c(=O)n1Cc1cnn(C)c1` (stereo partly drawn) [Example 27, (2E)-2-methoxyimino-N-(1-methylcyclopropyl)-3-[(1-methylpyrazol-4-yl)methyl]-4-oxo-8-[(2R)-2-methyl-1-(1-methylcyclopropanecarbonyl)-4-piperidyl]-1H-quinazoline-6-sulfonamide], the IC50 in experiment [1] and in experiment [2] was < 30 nM in each case. Moreover, the GI50 (in general, the concentration giving 50% growth inhibition) in experiment [3] is < 500 nM; in experiment [4] (Homo sapiens, NCI-H1650), < 500 nM.

For the compound `CO/N=c1\[nH]c2c(C3CCN(C)[C@H](C)C3)cc(S(=O)(=O)NC3(C)CC3)cc2c(=O)n1Cc1cnn(C)c1` (stereo partly drawn) [Example 25, (2E)-2-methoxyimino-N-(1-methylcyclopropyl)-3-[(1-methylpyrazol-4-yl)methyl]-4-oxo-8-[(2R)-1,2-dimethyl-4-piperidyl]-1H-quinazoline-6-sulfonamide], the IC50 (usually the concentration at which inhibition is half-maximal) in experiment [1] is < 30 nM; in experiment [2], 30 to 99 nM. Moreover, the GI50 in experiment [3] was 500 to 2000 nM; in experiment [4] (Homo sapiens, NCI-H1650), 500 to 2000 nM.

Consider `CO/N=c1\[nH]c2c(N3CCN(C)[C@H](C)C3)cc(S(=O)(=O)NC3(C)CC3)cc2c(=O)n1Cc1cnn(C)c1` [Example 21, (2E)-2-methoxyimino-N-(1-methylcyclopropyl)-3-[(1-methylpyrazol-4-yl)methyl]-4-oxo-8-[(3R)-3,4-dimethylpiperazin-1-yl]-1H-quinazoline-6-sulfonamide], for which the IC50 in experiment [1] is < 30 nM; in experiment [2], 30 to 99 nM. The GI50 in experiment [3] lay in the range of 500 to 2000 nM; in experiment [4] (Homo sapiens, NCI-H1650), 500 to 2000 nM.

For the compound `CO/N=c1\[nH]c2c(C3=C[C@@H](C)N(C(=O)C4(C)CC4)CC3)cc(S(=O)(=O)NC3(C)CC3)cc2c(=O)n1Cc1cnn(C)c1` [Example 30, (2E)-2-methoxyimino-N-(1-methylcyclopropyl)-3-[(1-methylpyrazol-4-yl)methyl]-4-oxo-8-[(2R)-2-methyl-1-(1-methylcyclopropanecarbonyl)-3,6-dihydro-2H-pyridin-4-yl]-1H-quinazoline-6-sulfonamide/(2E)-2-methoxyimino-N-(1-methylcyclopropyl)-3-[(1-methylpyrazol-4-yl)methyl]-4-oxo-8-[(6R)-6-methyl-1-(1-methylcyclopropanecarbonyl)-3,6-dihydro-2H-pyridin-4-yl]-1H-quinazoline-6-sulfonamide], the IC50 in experiment [1] and in experiment [2] was < 30 nM throughout. The GI50 in experiment [3] and in experiment [4] was < 500 nM in each case.

Consider `CO/N=c1\[nH]c2c(C3CCN[C@H](C)C3)cc(S(=O)(=O)NC3(C)CC3)cc2c(=O)n1Cc1cnn(C)c1` (stereo partly drawn) [Example 24, (2E)-2-methoxyimino-N-(1-methylcyclopropyl)-3-[(1-methylpyrazol-4-yl)methyl]-4-oxo-8-[(2R)-2-methyl-4-piperidyl]-1H-quinazoline-6-sulfonamide], for which the results for the IC50 in experiment [1] and in experiment [2] were < 30 nM and 100 to 1000 nM, respectively. The GI50 is 2000 to 9000 nM in experiment [3] and > 2000 nM in experiment [4] (Homo sapiens, NCI-H1650).

On to `CO/N=c1\[nH]c2c(C3=C[C@@H](C)N(C)CC3)cc(S(=O)(=O)NC3(C)CC3)cc2c(=O)n1Cc1cnn(C)c1` [Example 28, (2E)-2-methoxyimino-N-(1-methylcyclopropyl)-3-[(1-methylpyrazol-4-yl)methyl]-4-oxo-8-[(2R)-1,2-dimethyl-3,6-dihydro-2H-pyridin-4-yl]-1H-quinazoline-6-sulfonamide/(2E)-2-methoxyimino-N-(1-methylcyclopropyl)-3-[(1-methylpyrazol-4-yl)methyl]-4-oxo-8-[(6R)-1,6-dimethyl-3,6-dihydro-2H-pyridin-4-yl]-1H-quinazoline-6-sulfonamide], for which the IC50 in experiment [1] and in experiment [2] was < 30 nM in each case. Further, the GI50 in experiment [3] is 500 to 2000 nM; in experiment [4], < 500 nM.
